These results are taken from ChEMBL document CHEMBL1201862, “PubChem BioAssay data set” (2004).

Molecules are shown by their SMILES.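 Results reflect a 48-hour exposure of cells in 96-well plates to compound at five concentrations. GI50: concentration for 50% inhibition of growth.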 Active and inactive are the calls of the source. Rule as the data show it: active = GI50 up to about 1.1 µM and inactive = higher. Some results are limits rather than exact numbers.

Holding throughout (assay): growth of human tumour cells (NCI), 48 h
For experiment [1], the system named is SF-539.
Experiment [2] concerns SK-MEL-28.
The test system of experiment [3] is OVCAR-5.
Experiment [4] has as its system SK-MEL-2.
For experiment [5], the system named is HL-60.
The subject of experiment [6] is SN12C.
Experiment [7] relates to HCT-116.
Experiment [8] deals with K562.
The test system of experiment [9] is KM12.
The subject of experiment [10] is HOP-92.
For experiment [11], the system named is SF-268.
The test system of experiment [12] is SK-MEL-5.
Experiment [13] has as its system HOP-62.
Experiment [14] relates to HCT-15.
Experiment [15] concerns HT-29.
Experiment [16] deals with ACHN.
Experiment [17] relates to U-251.
Experiment [18] has as its system SNB-19.
For experiment [19], the system named is RXF 393.

`O=C(O)COc1ccc(C(=O)/C(SS/C(C(=O)c2ccc(OCC(=O)O)c(Cl)c2Cl)=C2\C=C(c3ccccc3Cl)SS2)=C2/C=C(c3ccccc3Cl)SS2)c(Cl)c1Cl`: the GI50 is 11.8 µM (inactive) in experiment [1]; 20.6 µM (inactive) in experiment [2]; > 70.3 µM (inactive) in [3]; 23.2 µM (inactive) in [4]; 2.59 µM (inactive) in [5]; 30.6 µM (inactive) in [6]. For the same compound, the GI50 in [7] is 18 µM (inactive); in experiment [8] it was 8.91 µM (inactive); in [9], 31.2 µM (inactive); in experiment [10], 7.89 µM (inactive); in [11], 22 µM (inactive); in experiment [12], 18.3 µM (inactive). Besides, the GI50 in [13] is 72.1 µM (inactive); in experiment [14], 21.7 µM; in experiment [15], 21.7 µM (inactive); in [16], 23.5 µM (inactive); in experiment [17] it was 6.61 µM (inactive); in experiment [18] it was 22.6 µM (inactive).
As to `CCCCC(C)/C=C/C(O)=C1\C(=O)O/C(=C\C(=O)O)C1=O` (stereo not given), the GI50 in experiment [1], in experiment [2], in experiment [3], in experiment [4], in experiment [5] and in experiment [6] was > 100 µM (inactive) in each case. For the same compound, the GI50 in experiment [7] was > 100 µM (inactive); in experiment [8], > 100 µM (inactive); in experiment [9], > 100 µM (inactive); in experiment [12], > 100 µM (inactive); in experiment [13], > 100 µM (inactive); in [14] it was greater than 100 µM. For the same compound, the GI50 in experiment [15], in [16], in experiment [17] and in [18] was > 100 µM (inactive) in each case.
Regarding `COc1ccc(C2C=C(c3ccc(C)cc3)N(c3ccc(OC)cc3[N+](=O)[O-])C3C(=O)OC(=O)C23)c(OC)c1` (stereo not given), the GI50 in [1] is 24.4 µM (inactive); in experiment [2], > 100 µM (inactive); in [3], 48.3 µM (inactive); in experiment [4], 24 µM (inactive); in experiment [5], 31.8 µM (inactive); in [7], 28.2 µM (inactive). The GI50 in experiment [8] was 37.8 µM (inactive); in experiment [9], 7.8 µM (inactive); in experiment [11] it was 18.5 µM (inactive); in [12], 64.6 µM (inactive); in experiment [13] it was 96.6 µM (inactive); in experiment [14] it was 33.5 µM. Besides, the GI50 in experiment [15] is 24.3 µM (inactive); in [16], 16 µM (inactive); in [17] it was 45.9 µM (inactive); in experiment [18] it was 47 µM (inactive).
In the case of `COc1ccc2[nH]c3c(C)c4cc[n+](COC(=O)c5ccccc5)cc4c(C)c3c2c1`, the GI50 in [1] was 0.305 µM (active); in experiment [2], 1.31 µM (inactive); in experiment [3], 0.879 µM (active); in experiment [5], 0.628 µM (active); in experiment [6], 0.197 µM (active); in experiment [7] it was 0.0378 µM (active). The GI50 in experiment [8] was 0.221 µM (active); in experiment [9], 0.61 µM (active); in experiment [10] it was 0.375 µM (active); in [11], 0.286 µM (active); in experiment [13] it was 2.66 µM (inactive); in experiment [15], 0.117 µM (active). Further, the GI50 in experiment [16] is 0.101 µM (active); in experiment [17], 0.392 µM (active); in experiment [18] it was 0.713 µM (active).
`O=c1c2ccccc2nc(-c2ccccc2Cl)n1NCC1(O)OCC(O)C(O)C1O` (stereo not given): the GI50 in experiment [1], in experiment [2], in experiment [3], in [4], in experiment [5] and in experiment [19] was > 100 µM (inactive) each time. In addition, the GI50 in experiment [6], in experiment [7], in experiment [8], in experiment [9], in [11] and in experiment [12] was > 100 µM (inactive) in each case. Further, the GI50 was greater than 100 µM in [14]; > 100 µM (inactive) in experiment [15]; > 100 µM (inactive) in experiment [16]; > 100 µM (inactive) in experiment [17]; > 100 µM (inactive) in experiment [18].
Consider `CC1SC2=NC3=C(c4ccccc4C3=O)C(c3ccc(F)cc3)N2C1=O` (stereo not given), for which the GI50 is > 100 µM (inactive) in experiment [1]; > 100 µM (inactive) in experiment [2]; > 100 µM (inactive) in experiment [3]; > 100 µM (inactive) in experiment [4]; > 100 µM (inactive) in experiment [5]; 63.7 µM (inactive) in experiment [6]. In addition, the GI50 in experiment [7] was > 100 µM (inactive); in experiment [8], > 100 µM (inactive); in [9] it was > 100 µM (inactive); in [10], 50.7 µM (inactive); in experiment [11], > 100 µM (inactive); in [12] it was > 100 µM (inactive). Moreover, the GI50 is > 100 µM (inactive) in experiment [13]; greater than 100 µM in experiment [14]; > 100 µM (inactive) in experiment [15]; > 100 µM (inactive) in [16]; > 100 µM (inactive) in experiment [17]; > 100 µM (inactive) in [18].
On to `COc1ccc(Nc2nc(C#N)c(N)s2)cc1`, for which the GI50 is 36.2 µM (inactive) in [1]; > 100 µM (inactive) in experiment [2]; > 100 µM (inactive) in experiment [3]; 33.4 µM (inactive) in experiment [4]; 24.5 µM (inactive) in experiment [5]; 30.7 µM (inactive) in [6]. In addition, the GI50 in experiment [7] was 33 µM (inactive); in experiment [8] it was 24.5 µM (inactive); in experiment [9], 29.9 µM (inactive); in experiment [10], > 100 µM (inactive); in experiment [11] it was 19.9 µM (inactive); in experiment [13], 46.8 µM (inactive). Also, the GI50 is 15.8 µM in [14]; 46.8 µM (inactive) in experiment [15]; 15.7 µM (inactive) in experiment [16]; 34.2 µM (inactive) in [17]; 49 µM (inactive) in experiment [18].
`CC1=NNC(=O)C2CCC(=O)N12` (stereo not given): the GI50 in experiment [1], in [2], in experiment [4], in experiment [5], in experiment [19] and in experiment [6] was > 100 µM (inactive) each time. Moreover, the GI50 in [7], in [8], in [9], in experiment [11], in [12] and in experiment [13] was > 100 µM (inactive) in each case. In addition, the GI50 was greater than 100 µM in experiment [14], > 100 µM (inactive) in experiment [16], > 100 µM (inactive) in experiment [17] and > 100 µM (inactive) in experiment [18].
Consider `OC12c3ccccc3C1CCCCCCCCCC21OCCO1` (stereo not given), for which the GI50 in experiment [1], in experiment [2], in [3], in experiment [4], in experiment [19] and in experiment [6] was > 100 µM (inactive) each time. The GI50 in experiment [7], in [8], in experiment [9], in [11], in [12] and in experiment [13] was > 100 µM (inactive) in each case. Moreover, the GI50 in experiment [14] is greater than 100 µM; in experiment [15] it was > 100 µM (inactive); in experiment [16], > 100 µM (inactive); in experiment [17], > 100 µM (inactive); in [18], > 100 µM (inactive).
